# Experiments:
# [1] = Ultraviolet and visible absorption spectrum (absorbance at i-, h- and g-line); type: physicochemical; details: measurement solvent dichloromethane
# Procedure: [3] Ultraviolet and visible absorption spectrum Types of machines: Varian Cary4000 manufactured by Agilent Technologies, Inc.
# (§1) Measurement solvent: Dichloromethane
# Absorption spectrums of compounds obtained in Examples 1 to 5 were measured. Furthermore, N-trifluoromethanesulfonyloxy-1,8-naphthalimide was used as a comparative example.
# [2] = Evaluation test of acid generating ability (UV irradiation, BCG pH probe); type: physicochemical; details: solution in dichloromethane with BCG, before irradiation
# Procedure: It was measured and evaluated by devices and a method (Evaluation test of acid generating ability) described below whether compounds obtained in Examples above acted as an acid generator under photoirradiation. The actual evaluation was conducted by use of Compound 1H. Devices used in evaluation are as follows.
# as §1
# (1) […] Compound 1H solution in dichloromethane was prepared and a few drops of 50% bromocresolgreen (BCG) solution in ethanol were added in this solution as pH probe.
# (2) The absorption spectrum of the solution was measured and it was checked that there are maximum absorption spectrums of Compound 1H in 300-400 nm and BOG in 630 nm. The color of this solution was dark blue.
# (3) The absorption spectrum of the solution was measured every 2 minutes while irradiating the solution described (2) above by UV lamp. At this time, the progress of attenuation concerning absorption maximum of BCG spectrum and the discoloration situation of dark blue color in the solution due to the pH decline of the system by generation of acids were observed by eyes.
Structure (SMILES),absorbance 365 nm (i-line) [1],absorbance 405 nm (h-line) [1],absorbance 436 nm (g-line) [1],maximum absorption spectrum [2]
"O=C1c2cccc3c(C#Cc4ccccc4)ccc(c23)C(=O)N1OS(=O)(=O)C(F)(F)F [Compound 1H, N-trifluoromethanesulfonyloxy-4-phenylethynyl-1,8-naphthalimide]",0.4162,0.5112,0.01499,300-400 nm
"O=C1c2cccc3cccc(c23)C(=O)N1OS(=O)(=O)C(F)(F)F [Comparative example, N-trifluoromethanesulfonyloxy-1,8-naphthalimide, reference compound]",0.02925,0.005575,0.004642,
